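Five compound concentrations were applied to cells in 96-well plates for 48 hours; endpoints were derived by simple linear interpolation of the resulting dose-response curve. The concentration for 50% growth inhibition is given as GI50.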 Active and inactive are the calls of the source. Cut-off read from the data, not from the text of the source: active = GI50 up to about 1.1 µM and inactive = higher.
How the values were obtained:
Test in all cases: growth of human tumour cells (NCI), 48 h
[1] = tested on: DLD-1
[2] = tested on: DMS-114
[3] = tested on: DMS-273
[4] = tested on: HOP-18
[5] = tested on: KM-20L2
[6] = tested on: M19-MEL
[7] = tested on: SNB-78
[8] = tested on: XF498
[9] = tested on: RXF 631

`OC(c1ccccc1)(c1ccccc1)c1ccncc1` was tested, and the GI50 [1] was > 100 µM (inactive), the GI50 [2] was > 100 µM (inactive) and the GI50 [3] was > 100 µM (inactive). For the same molecule, the GI50 [4] was > 100 µM (inactive), the GI50 [5] was > 100 µM (inactive) and the GI50 [6] was > 100 µM (inactive). For the same molecule, the GI50 [7] was > 100 µM (inactive) and the GI50 [8] was > 100 µM (inactive).
`COc1ccc2c(c1)C(=O)c1ccc(OC)cc1C2=S` was tested, and the GI50 [1] was 55.5 µM (inactive), the GI50 [2] was > 100 µM (inactive) and the GI50 [3] was > 100 µM (inactive). The GI50 [4] was > 100 µM (inactive), the GI50 [5] was > 100 µM (inactive) and the GI50 [6] was > 100 µM (inactive). The GI50 [7] was 30.7 µM (inactive) and the GI50 [8] was 85.3 µM (inactive).
In the case of `COC(=O)c1csnn1`, the GI50 [2] is reported as > 100 µM (inactive), the GI50 [3] is reported as > 100 µM (inactive) and the GI50 [5] is reported as > 100 µM (inactive). The GI50 [6] was > 100 µM (inactive) and the GI50 [8] was > 100 µM (inactive).
With `COc1ccc(CC2c3c(cc(OC)c(OC)c3OC)CCN2C)cc1OC` (centres undefined) the GI50 [1] was > 100 µM (inactive), the GI50 [4] was 51.2 µM (inactive) and the GI50 [5] was > 100 µM (inactive). The GI50 [7] was 60 µM (inactive) and the GI50 [8] was > 100 µM (inactive).
In the case of `CC(=O)NC(CCCNC(=O)NCCCl)C(=O)NCc1ccccc1` (centres undefined), the GI50 [2] is reported as > 100 µM (inactive), the GI50 [3] is reported as > 100 µM (inactive) and the GI50 [4] is reported as > 100 µM (inactive). For the same molecule, the GI50 [5] was > 100 µM (inactive), the GI50 [6] was > 100 µM (inactive) and the GI50 [9] was > 100 µM (inactive).
For `CN1C/C(=C\C=C\c2ccccc2)C(=O)/C(=C/C=C/c2ccccc2)C1`, the GI50 [1] was > 100 µM (inactive), the GI50 [2] was > 100 µM (inactive) and the GI50 [3] was > 100 µM (inactive). For the same molecule, the GI50 [5] was > 100 µM (inactive), the GI50 [6] was > 100 µM (inactive) and the GI50 [9] was > 100 µM (inactive). The GI50 [7] was > 100 µM (inactive) and the GI50 [8] was > 100 µM (inactive).
`O=C(O)c1ccccc1Cc1ccco1` was tested, and the GI50 [1] was > 100 µM (inactive), the GI50 [2] was > 100 µM (inactive) and the GI50 [3] was > 100 µM (inactive). The GI50 [4] was > 100 µM (inactive), the GI50 [5] was > 100 µM (inactive) and the GI50 [7] was > 100 µM (inactive).
In the case of `CCc1cccc(C)c1NS(=O)(=O)c1ccccc1`, the GI50 [1] is reported as > 100 µM (inactive), the GI50 [2] is reported as > 100 µM (inactive) and the GI50 [3] is reported as > 100 µM (inactive). The GI50 [5] was > 100 µM (inactive), the GI50 [6] was > 100 µM (inactive) and the GI50 [9] was > 100 µM (inactive). The GI50 [7] was > 100 µM (inactive) and the GI50 [8] was > 100 µM (inactive).
For `C/C(=N\NC(C)(C)C)c1sc(-c2nc(C)c(/C(C)=N/NC(C)(C)C)s2)nc1C`, the GI50 [1] was > 100 µM (inactive), the GI50 [2] was > 100 µM (inactive) and the GI50 [3] was > 100 µM (inactive). For the same molecule, the GI50 [4] was > 100 µM (inactive), the GI50 [5] was > 100 µM (inactive) and the GI50 [6] was > 100 µM (inactive). The GI50 [9] was > 100 µM (inactive) and the GI50 [7] was > 100 µM (inactive).
For `CC1=C(C(=O)CC(=O)C(=O)Nc2cc(C)ccc2C)Sc2ccccc2N1`, the GI50 [1] was 92.3 µM (inactive), the GI50 [2] was > 100 µM (inactive) and the GI50 [4] was > 100 µM (inactive). For the same molecule, the GI50 [6] was > 100 µM (inactive), the GI50 [9] was > 100 µM (inactive) and the GI50 [7] was > 100 µM (inactive). For the same molecule, the GI50 [8] was > 100 µM (inactive).
With `CCOP(=O)(OCC)/C(C#N)=C/c1ccc[nH]1` the GI50 [1] was > 100 µM (inactive), the GI50 [2] was > 100 µM (inactive) and the GI50 [3] was > 100 µM (inactive). The GI50 [4] was > 100 µM (inactive), the GI50 [5] was > 100 µM (inactive) and the GI50 [6] was > 100 µM (inactive). The GI50 [7] was > 100 µM (inactive).
`Cc1ccc(SC2C(C)(C)N(C(C)C)P2(=O)N(C(C)C)C(C)C)cc1` (centres undefined) was tested, and the GI50 [3] was 13.4 µM (inactive), the GI50 [4] was > 100 µM (inactive) and the GI50 [5] was 34 µM (inactive). The GI50 [6] was 26.7 µM (inactive) and the GI50 [7] was > 68.5 µM (inactive).
With `CN(c1ccccc1)C1C(=O)N(c2ccccc2)C1/C=C/c1ccccc1` (centres undefined) the GI50 [1] was > 100 µM (inactive), the GI50 [3] was > 100 µM (inactive) and the GI50 [6] was > 100 µM (inactive). For the same molecule, the GI50 [7] was > 100 µM (inactive).
In the case of `CCOC(C[C@H](O)[C@H]1COC(=S)S1)OCC`, the GI50 [2] is reported as > 100 µM (inactive), the GI50 [3] is reported as > 100 µM (inactive) and the GI50 [5] is reported as > 100 µM (inactive). For the same molecule, the GI50 [6] was > 100 µM (inactive) and the GI50 [8] was > 100 µM (inactive).
In the case of `O=C(c1ccccc1)[C@H]1Nc2ccc(Cl)cc2C2c3ccccc3CC21` (some centres undefined), the GI50 [1] is reported as > 100 µM (inactive), the GI50 [2] is reported as 69.3 µM (inactive) and the GI50 [3] is reported as 66.8 µM (inactive). For the same molecule, the GI50 [5] was > 100 µM (inactive), the GI50 [6] was 71.4 µM (inactive) and the GI50 [9] was 27.8 µM (inactive). The GI50 [7] was > 100 µM (inactive) and the GI50 [8] was 21.5 µM (inactive).
For `N#Cc1ccc(/C=N\N2C(=O)c3ccccc3C2=O)cc1`, the GI50 [1] was > 100 µM (inactive), the GI50 [2] was > 100 µM (inactive) and the GI50 [3] was > 100 µM (inactive). The GI50 [4] was > 100 µM (inactive), the GI50 [5] was > 100 µM (inactive) and the GI50 [6] was > 100 µM (inactive). For the same molecule, the GI50 [7] was > 100 µM (inactive) and the GI50 [8] was > 100 µM (inactive).
`N#Cc1ccc(Sc2ccccc2)cc1C#N` was tested, and the GI50 [1] was 34 µM (inactive), the GI50 [3] was 19.1 µM (inactive) and the GI50 [4] was 50.6 µM (inactive). The GI50 [5] was 75.3 µM (inactive), the GI50 [6] was > 100 µM (inactive) and the GI50 [9] was 30.9 µM (inactive). For the same molecule, the GI50 [8] was 23.1 µM (inactive).
With `C/C(=N/N)c1sc(-c2nc(C)c(/C(C)=N\N)s2)nc1C` the GI50 [1] was > 67.9 µM (inactive), the GI50 [2] was > 46.7 µM (inactive) and the GI50 [3] was > 41.3 µM (inactive). The GI50 [4] was > 67.1 µM (inactive), the GI50 [5] was > 100 µM (inactive) and the GI50 [6] was > 100 µM (inactive). The GI50 [7] was > 100 µM (inactive) and the GI50 [8] was 38.2 µM (inactive).
In the case of `O=C1C=C(Nc2ccccc2C(=O)CC(=O)C(=O)Nc2ccc(Cl)cc2)c2ccccc2C1=O`, the GI50 [1] is reported as 5.56 µM (inactive), the GI50 [2] is reported as 3.64 µM (inactive) and the GI50 [3] is reported as 13.8 µM (inactive). For the same molecule, the GI50 [4] was 0.594 µM (active), the GI50 [5] was > 55.2 µM (inactive) and the GI50 [6] was 1.95 µM (inactive). For the same molecule, the GI50 [9] was 30 µM (inactive), the GI50 [7] was 6.37 µM (inactive) and the GI50 [8] was 13.7 µM (inactive).
With `COc1cc2ccnc3c(=C(SC)SC)c(=O)c(c1OC)c23` the GI50 [1] was 13.9 µM (inactive), the GI50 [2] was 17.3 µM (inactive) and the GI50 [3] was 13.8 µM (inactive). The GI50 [4] was 13.3 µM (inactive), the GI50 [5] was 15.7 µM (inactive) and the GI50 [6] was 16 µM (inactive). The GI50 [9] was 14.8 µM (inactive).
In the case of `Cc1cc(C)c(/C=N/NS(=O)(=O)c2ccccc2)c(C)c1`, the GI50 [1] is reported as 91.8 µM (inactive), the GI50 [2] is reported as 60.4 µM (inactive) and the GI50 [3] is reported as > 100 µM (inactive). The GI50 [4] was 59 µM (inactive), the GI50 [5] was > 100 µM (inactive) and the GI50 [6] was > 100 µM (inactive). The GI50 [9] was > 100 µM (inactive) and the GI50 [7] was > 100 µM (inactive).
In the case of `CN1C/C(=C\c2ccco2)c2nc(N)nc(-c3ccco3)c2C1`, the GI50 [1] is reported as > 100 µM (inactive), the GI50 [2] is reported as > 100 µM (inactive) and the GI50 [3] is reported as 88.1 µM (inactive). The GI50 [5] was > 100 µM (inactive), the GI50 [6] was > 100 µM (inactive) and the GI50 [8] was 23.6 µM (inactive).
In the case of `C1=CC=C2NCCCCCC/N=C3\C=CC=CC=C3NCCc3cccc(c3)CC/N=C/2C=C1`, the GI50 [1] is reported as 36.6 µM (inactive), the GI50 [2] is reported as 13.3 µM (inactive) and the GI50 [3] is reported as 10.2 µM (inactive). The GI50 [5] was 4.81 µM (inactive), the GI50 [6] was 16.7 µM (inactive) and the GI50 [9] was 11.2 µM (inactive). The GI50 [7] was > 100 µM (inactive).
For `COc1ccc2nc3cc(Cl)ccc3c(Sc3ccccc3[N+](=O)[O-])c2c1`, the GI50 [1] was > 100 µM (inactive), the GI50 [2] was > 100 µM (inactive) and the GI50 [3] was > 100 µM (inactive). For the same molecule, the GI50 [4] was > 100 µM (inactive), the GI50 [5] was > 100 µM (inactive) and the GI50 [6] was > 100 µM (inactive). For the same molecule, the GI50 [9] was 43.9 µM (inactive), the GI50 [7] was 41.2 µM (inactive) and the GI50 [8] was 29.4 µM (inactive).
In the case of `CCN(CC)CCNc1ccc2nnn3c4ccc([N+](=O)[O-])cc4c(=O)c1c23`, the GI50 [1] is reported as 3.93 µM (inactive), the GI50 [2] is reported as 8.53 µM (inactive) and the GI50 [3] is reported as 5.16 µM (inactive). For the same molecule, the GI50 [4] was 2.8 µM (inactive), the GI50 [5] was 4.94 µM (inactive) and the GI50 [6] was > 20.5 µM (inactive). For the same molecule, the GI50 [9] was 4.11 µM (inactive), the GI50 [7] was 9.71 µM (inactive) and the GI50 [8] was 6.25 µM (inactive).
`C[C@]12C=CC(=O)C=C1CC[C@@H]1[C@@H]2CC[C@]2(C)OC(=O)CC[C@@H]12` [TESTOLACTONE] was tested, and the GI50 [1] was > 500 µM (inactive), the GI50 [2] was 376 µM (inactive) and the GI50 [3] was > 490 µM (inactive). The GI50 [4] was 98.4 µM (inactive), the GI50 [5] was 456 µM (inactive) and the GI50 [9] was > 472 µM (inactive). For the same molecule, the GI50 [7] was 460 µM (inactive) and the GI50 [8] was 245 µM (inactive).
